Measurements: US10800791B2, “Triazole ACC inhibitors and uses thereof” (Gilead Apollo, LLC, priority 2015, dated 2020)
≈ marks a conversion by molar mass, not a printed value. Like-named read-outs stand apart in the source and are kept apart here.

Legend:
[1] = test system: Fusarium virguliforme (Fv); assay: Growth inhibition assay of fungal pathogens, Fv; type: cell-based; details: 48 h
Outline: (§1)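 Spore suspension in 17% V8 liquid media; cpd final 50/10/2 or 2/0.4/0.08 ppm, 2% DMSO. OD600 + visual, 24 & 48 h; % inhibition at 48 h vs 2% DMSO ctrl.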

fungal (fACC2) = fungal (fACC2) (UniProt Q00955); details: read-out: fACC2 (in vitro ACC2 Inhibition Assay, IC50), ADP-Glo, 5 nM ACC2, 20 μM ATP, 20 μM acetyl-CoA
Sequence of fungal (fACC2) (Q00955 whole entry): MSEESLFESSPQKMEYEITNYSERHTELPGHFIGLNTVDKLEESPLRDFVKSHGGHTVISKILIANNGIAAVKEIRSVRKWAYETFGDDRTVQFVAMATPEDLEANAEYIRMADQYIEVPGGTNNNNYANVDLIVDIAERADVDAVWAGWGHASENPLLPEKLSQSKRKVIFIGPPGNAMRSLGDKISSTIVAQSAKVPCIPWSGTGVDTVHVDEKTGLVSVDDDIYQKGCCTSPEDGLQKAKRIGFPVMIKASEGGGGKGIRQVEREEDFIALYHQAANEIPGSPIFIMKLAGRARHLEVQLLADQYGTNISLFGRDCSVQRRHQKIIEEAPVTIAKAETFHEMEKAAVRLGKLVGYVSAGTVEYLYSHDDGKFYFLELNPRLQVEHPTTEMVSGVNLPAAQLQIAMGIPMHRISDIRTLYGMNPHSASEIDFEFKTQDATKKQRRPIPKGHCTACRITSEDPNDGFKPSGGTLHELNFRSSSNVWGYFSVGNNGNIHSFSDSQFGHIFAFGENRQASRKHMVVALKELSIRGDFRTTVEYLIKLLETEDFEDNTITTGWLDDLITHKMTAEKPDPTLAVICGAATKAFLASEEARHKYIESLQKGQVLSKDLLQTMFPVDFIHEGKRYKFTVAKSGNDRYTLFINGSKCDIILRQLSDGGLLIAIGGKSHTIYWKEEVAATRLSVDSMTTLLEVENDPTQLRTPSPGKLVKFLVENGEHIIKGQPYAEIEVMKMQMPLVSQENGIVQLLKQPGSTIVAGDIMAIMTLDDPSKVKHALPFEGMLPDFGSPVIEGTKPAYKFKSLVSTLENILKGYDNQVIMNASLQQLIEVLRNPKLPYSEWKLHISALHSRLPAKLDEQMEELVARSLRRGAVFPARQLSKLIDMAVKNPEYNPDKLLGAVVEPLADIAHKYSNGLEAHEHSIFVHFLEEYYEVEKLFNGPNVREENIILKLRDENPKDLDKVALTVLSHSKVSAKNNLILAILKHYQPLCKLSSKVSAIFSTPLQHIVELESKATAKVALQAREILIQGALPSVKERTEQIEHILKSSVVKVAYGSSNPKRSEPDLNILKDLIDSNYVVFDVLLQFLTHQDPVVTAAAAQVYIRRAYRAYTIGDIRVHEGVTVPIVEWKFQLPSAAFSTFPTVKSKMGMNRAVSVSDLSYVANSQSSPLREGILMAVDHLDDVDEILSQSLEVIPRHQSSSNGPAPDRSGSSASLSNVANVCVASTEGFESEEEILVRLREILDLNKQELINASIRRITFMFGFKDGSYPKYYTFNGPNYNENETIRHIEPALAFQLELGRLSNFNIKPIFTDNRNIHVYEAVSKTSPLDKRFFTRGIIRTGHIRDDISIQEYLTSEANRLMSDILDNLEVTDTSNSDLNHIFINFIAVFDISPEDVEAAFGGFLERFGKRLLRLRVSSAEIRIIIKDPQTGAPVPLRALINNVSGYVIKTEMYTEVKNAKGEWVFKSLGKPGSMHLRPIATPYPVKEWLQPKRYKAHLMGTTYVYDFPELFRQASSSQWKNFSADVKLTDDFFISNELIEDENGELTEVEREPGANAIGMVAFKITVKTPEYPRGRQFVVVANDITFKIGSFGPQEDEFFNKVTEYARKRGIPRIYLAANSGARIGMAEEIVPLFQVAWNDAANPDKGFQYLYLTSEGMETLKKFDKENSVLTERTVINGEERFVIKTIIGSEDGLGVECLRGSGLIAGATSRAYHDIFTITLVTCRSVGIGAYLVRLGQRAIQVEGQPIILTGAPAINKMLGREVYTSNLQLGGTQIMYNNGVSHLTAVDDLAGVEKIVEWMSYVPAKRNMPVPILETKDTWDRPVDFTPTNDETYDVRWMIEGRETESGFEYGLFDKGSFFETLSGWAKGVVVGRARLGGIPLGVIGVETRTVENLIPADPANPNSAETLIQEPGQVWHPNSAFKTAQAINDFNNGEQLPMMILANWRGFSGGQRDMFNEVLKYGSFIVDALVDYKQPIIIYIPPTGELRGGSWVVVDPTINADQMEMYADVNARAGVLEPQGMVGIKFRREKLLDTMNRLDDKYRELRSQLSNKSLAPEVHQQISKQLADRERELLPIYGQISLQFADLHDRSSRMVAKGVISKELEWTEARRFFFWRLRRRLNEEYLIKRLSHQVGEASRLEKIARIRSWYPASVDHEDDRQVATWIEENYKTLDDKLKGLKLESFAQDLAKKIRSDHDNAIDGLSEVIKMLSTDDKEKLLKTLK

C. parapsilosis = assay: Antifungal Activity Assay (broth microtiter MIC), C. parapsilosis; type: cell-based, Candida parapsilosis; details: Lodderomyces parapsilosis, ATCC22019, 48 h
Outline: (§2)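 Susceptibility was determined by CLSI M27-A3 broth microdilution in RPMI 1640 buffered with MOPS. Growth inhibition was scored visually after 48 h.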

Botrtyis cinerea (Bc) = assay: Growth inhibition assay of fungal pathogens, Bc; type: cell-based; details: 48 h
Outline: as §1

Rhizoctonia solani (Rs) = assay: Growth inhibition assay of fungal pathogens, Rs; type: cell-based; details: 48 h
[2] = test system: Collectotrichum graminicola (Cg); assay: Growth inhibition assay of fungal pathogens, Cg; type: cell-based; details: 48 h
Outline: as §1

C. krusei = assay: Antifungal Activity Assay (broth microtiter MIC), C. krusei; type: cell-based, Candida krusei; details: Pichia kudriavzevii, ATCC6258, 48 h
Outline: as §2

Diplodia maydis (Dm) = assay: Growth inhibition assay of fungal pathogens, Dm; type: cell-based; details: Stenocarpella maydis, 48 h
Outline: as §1

C. albicans = assay: Antifungal Activity Assay (broth microtiter MIC), C. albicans; type: cell-based, Candida albicans; details: Candida albicans, ATCC90028, 48 h
Outline: as §2

[3] = test system: Fusarium moniliforme (Fm); assay: Growth inhibition assay of fungal pathogens, Fm; type: cell-based; details: for IC90: Fusarium verticillioides, 48 h, read-out: Concentration at 90% Inhibition Fm
Outline: as §1

Septoria tritici (St) = assay: Growth inhibition assay of fungal pathogens, St; type: cell-based; details: Zymoseptoria tritici, 48 h
Outline: as §1

[4] = read-out: Concentration at 90% Inhibition Fv, Fusarium virguliforme, growth inhibition at 48 hours vs 2% DMSO control
[5] = read-out: Concentration at 90% Inhibition Fv, Fusarium virguliforme, growth inhibition vs 2% DMSO control at 48 hours
[6] = read-out: MIC, C. parapsilosis ATCC 22019, Table 3a, 3 replicates, MIC recorded at 48 h
[7] = read-out: MIC, C. parapsilosis ATCC 22019, Table 3b (additional results), 3 replicates, MIC recorded at 48 h
[8] = read-out: Concentration at 90% Inhibition Bc, Botrtyis cinerea, growth inhibition at 48 hours vs 2% DMSO control
[9] = read-out: Concentration at 90% Inhibition Bc, Botrtyis cinerea, growth inhibition vs 2% DMSO control at 48 hours
[10] = read-out: Concentration at 90% Inhibition Rs, Rhizoctonia solani, mycelial plugs, growth inhibition at 48 hours vs 2% DMSO control
[11] = read-out: Concentration at 90% Inhibition Rs, Rhizoctonia solani, mycelial plugs, growth inhibition vs 2% DMSO control at 48 hours
[12] = read-out: Concentration at 90% Inhibition Cg, Collectotrichum graminicola, growth inhibition at 48 hours vs 2% DMSO control
[13] = read-out: Concentration at 90% Inhibition Cg, Collectotrichum graminicola, growth inhibition vs 2% DMSO control at 48 hours
[14] = read-out: MIC, C. krusei ATCC 6258, Table 3a, 3 replicates, MIC recorded at 48 h
[15] = read-out: MIC, C. krusei ATCC 6258, Table 3b (additional results), 3 replicates, MIC recorded at 48 h
[16] = read-out: Concentration at 90% Inhibition Dm, Diplodia maydis, growth inhibition at 48 hours vs 2% DMSO control
[17] = read-out: Concentration at 90% Inhibition Dm, Diplodia maydis, growth inhibition vs 2% DMSO control at 48 hours
[18] = read-out: MIC, C. albicans ATCC 90028, Table 3a, 3 replicates, MIC recorded at 48 h
[19] = read-out: MIC, C. albicans ATCC 90028, Table 3b (additional results), 3 replicates, MIC recorded at 48 h
[20] = Fusarium moniliforme, growth inhibition at 48 hours vs 2% DMSO control
[21] = read-out: Concentration at 90% Inhibition St, Septoria tritici, growth inhibition at 48 hours vs 2% DMSO control
[22] = read-out: Concentration at 90% Inhibition St, Septoria tritici, growth inhibition vs 2% DMSO control at 48 hours

## COc1ccc(F)cc1[C@H](Cn1c(=O)n(C(C)(C)C(=O)NC(C)C)c(=O)c2c(C)c(-n3nccn3)sc21)OC[C@H](C)O [Compound I-47, 2-(1-((R)-2-(5-fluoro-2-methoxyphenyl)-2-((S)-2-hydroxypropoxy)ethyl)-5-methyl-2,4-dioxo-6-(2H-1,2,3-triazol-2-yl)-1,4-dihydro-thieno[2,3-d]pyrimidin-3(2H)-yl)-N-isopropyl-2-methylpropanamide]
[1]; [4]
  IC90: 0.4 mg/L (≈ 0.664 µM)
[1]; [5]
  IC90: 0.4 mg/L (≈ 0.664 µM)
Fungal (fACC2); Table 2a
  IC50: 1 to 5 nM
Fungal (fACC2); Table 2b, additional results
  IC50: 1 to 5 nM
C. parapsilosis; [6]
  MIC: 0.25 to 1 mg/L (≈ 0.415 to 1.66 µM)
C. parapsilosis; [7]
  MIC: 1.01 to 2 mg/L (≈ 1.68 to 3.32 µM)
Botrtyis cinerea (Bc); [8]
  IC90: 0.4 mg/L (≈ 0.664 µM)
Botrtyis cinerea (Bc); [9]
  IC90: 0.4 mg/L (≈ 0.664 µM)
Rhizoctonia solani (Rs); [10]
  IC90: 0.4 mg/L (≈ 0.664 µM)
Rhizoctonia solani (Rs); [11]
  IC90: 0.4 mg/L (≈ 0.664 µM)
[2]; [12]
  IC90: 0.4 mg/L (≈ 0.664 µM)
[2]; [13]
  IC90: 0.4 mg/L (≈ 0.664 µM)
C. krusei; [14]
  MIC: 0.06 to 0.24 mg/L (≈ 0.0996 to 0.398 µM)
C. krusei; [15]
  MIC: 1.01 to 2 mg/L (≈ 1.68 to 3.32 µM)
Diplodia maydis (Dm); [16]
  IC90: 0.4 mg/L (≈ 0.664 µM)
Diplodia maydis (Dm); [17]
  IC90: 0.4 mg/L (≈ 0.664 µM)
C. albicans; [18]
  MIC: 0.25 to 1 mg/L (≈ 0.415 to 1.66 µM)
C. albicans; [19]
  MIC: 0.25 to 1 mg/L (≈ 0.415 to 1.66 µM)
[3]; [20]
  Concentration at 90% Inhibition Fm: AA (compound concentration of 0.08 ppm at 90% inhibition of fungal pathogens)
[3]
  IC90: 0.08 mg/L (≈ 0.133 µM)
Septoria tritici (St); [21]
  IC90: 10 mg/L (≈ 16.6 µM)
Septoria tritici (St); [22]
  IC90: > 50 mg/L

## COc1ccc(F)cc1[C@H](Cn1c(=O)n(C(C)(C)C(=O)N2CCCC2)c(=O)c2c(C)c(-n3nccn3)sc21)OC[C@H](C)O [Compound I-48, 1-((R)-2-(5-fluoro-2-methoxyphenyl)-2-((S)-2-hydroxy-propoxy)ethyl)-5-methyl-3-(2-methyl-1-oxo-1-(pyrrolidin-1-yl)propan-2-yl)-6-(2H-1,2,3-triazol-2-yl)thieno[2,3-d]pyrimidine-2,4(1H,3H)-dione]
[1]; growth inhibition at 48 hours vs 2% DMSO control, read-out: Concentration at 90% Inhibition Fv
  IC90: 0.4 mg/L (≈ 0.651 µM)
[1]; growth inhibition vs 2% DMSO control at 48 hours, read-out: Concentration at 90% Inhibition Fv
  IC90: 0.4 mg/L (≈ 0.651 µM)
Fungal (fACC2); Table 2a
  IC50: 0.4 to 1 nM
Fungal (fACC2); Table 2b, additional results
  IC50: 0.3 to 1 nM
C. parapsilosis; Table 3a, ATCC 22019, 3 replicates, MIC recorded at 48 h, read-out: MIC, C. parapsilosis ATCC 22019
  MIC: 2.1 to 4 mg/L (≈ 3.42 to 6.51 µM)
C. parapsilosis; Table 3b (additional results), ATCC 22019, 3 replicates, MIC recorded at 48 h, read-out: MIC, C. parapsilosis ATCC 22019
  MIC: 1.01 to 2 mg/L (≈ 1.64 to 3.25 µM)
Botrtyis cinerea (Bc); Botrtyis cinerea, growth inhibition at 48 hours vs 2% DMSO control, read-out: Concentration at 90% Inhibition Bc
  IC90: 2 mg/L (≈ 3.25 µM)
Botrtyis cinerea (Bc); Botrtyis cinerea, growth inhibition vs 2% DMSO control at 48 hours, read-out: Concentration at 90% Inhibition Bc
  IC90: 2 mg/L (≈ 3.25 µM)
Rhizoctonia solani (Rs); mycelial plugs, growth inhibition at 48 hours vs 2% DMSO control, read-out: Concentration at 90% Inhibition Rs
  IC90: 2 mg/L (≈ 3.25 µM)
Rhizoctonia solani (Rs); mycelial plugs, growth inhibition vs 2% DMSO control at 48 hours, read-out: Concentration at 90% Inhibition Rs
  IC90: 10 mg/L (≈ 16.3 µM)
[2]; Collectotrichum graminicola, growth inhibition at 48 hours vs 2% DMSO control, read-out: Concentration at 90% Inhibition Cg
  IC90: 0.4 mg/L (≈ 0.651 µM)
[2]; Collectotrichum graminicola, growth inhibition vs 2% DMSO control at 48 hours, read-out: Concentration at 90% Inhibition Cg
  IC90: 0.4 mg/L (≈ 0.651 µM)
C. krusei; Table 3a, ATCC 6258, 3 replicates, MIC recorded at 48 h, read-out: MIC, C. krusei ATCC 6258
  MIC: 1.1 to 2 mg/L (≈ 1.79 to 3.25 µM)
C. krusei; Table 3b (additional results), ATCC 6258, 3 replicates, MIC recorded at 48 h, read-out: MIC, C. krusei ATCC 6258
  MIC: 2.01 to 4 mg/L (≈ 3.27 to 6.51 µM)
Diplodia maydis (Dm); Diplodia maydis, growth inhibition at 48 hours vs 2% DMSO control, read-out: Concentration at 90% Inhibition Dm
  IC90: 2 mg/L (≈ 3.25 µM)
Diplodia maydis (Dm); Diplodia maydis, growth inhibition vs 2% DMSO control at 48 hours, read-out: Concentration at 90% Inhibition Dm
  IC90: 2 mg/L (≈ 3.25 µM)
C. albicans; Table 3a, ATCC 90028, 3 replicates, MIC recorded at 48 h, read-out: MIC, C. albicans ATCC 90028
  MIC: 1.1 to 2 mg/L (≈ 1.79 to 3.25 µM)
C. albicans; Table 3b (additional results), ATCC 90028, 3 replicates, MIC recorded at 48 h, read-out: MIC, C. albicans ATCC 90028
  MIC: 0.25 to 1 mg/L (≈ 0.407 to 1.63 µM)
[3]; [20]
  IC90: 0.4 mg/L (≈ 0.651 µM)
[3]; Fusarium moniliforme, growth inhibition vs 2% DMSO control at 48 hours
  IC90: 0.4 mg/L (≈ 0.651 µM)
Septoria tritici (St); Septoria tritici, growth inhibition at 48 hours vs 2% DMSO control, read-out: Concentration at 90% Inhibition St
  IC90: > 50 mg/L
Septoria tritici (St); Septoria tritici, growth inhibition vs 2% DMSO control at 48 hours, read-out: Concentration at 90% Inhibition St
  IC90: > 50 mg/L

## COc1ccc(F)cc1[C@H](Cn1c(=O)n(C(C)(C)C(=O)N(C)C)c(=O)c2c(C)c(-n3nccn3)sc21)OC(C)C [Compound I-49, (R)-2-(1-(2-(5-fluoro-2-methoxyphenyl)-2-isopropoxy-ethyl)-5-methyl-2,4-dioxo-6-(2H-1,2,3-triazol-2-yl)-1,4-dihydrothieno[2,3-d]pyrimi-din-3(2H)-yl)-N,N,2-trimethylpropanamide]
[1]; [4]
  IC90: 0.4 mg/L (≈ 0.698 µM)
[1]; [5]
  IC90: 0.4 mg/L (≈ 0.698 µM)
Fungal (fACC2); Table 2a
  IC50: 1 to 5 nM
Fungal (fACC2); Table 2b, additional results
  IC50: 1 to 5 nM
C. parapsilosis; [6]
  MIC: 2.1 to 4 mg/L (≈ 3.67 to 6.98 µM)
C. parapsilosis; [7]
  MIC: > 4.01 mg/L
Botrtyis cinerea (Bc); [8]
  IC90: 0.4 mg/L (≈ 0.698 µM)
Botrtyis cinerea (Bc); [9]
  IC90: 0.4 mg/L (≈ 0.698 µM)
Rhizoctonia solani (Rs); [10]
  IC90: 0.4 mg/L (≈ 0.698 µM)
Rhizoctonia solani (Rs); [11]
  IC90: 0.4 mg/L (≈ 0.698 µM)
[2]; [12]
  IC90: 10 mg/L (≈ 17.5 µM)
[2]; [13]
  IC90: > 50 mg/L
C. krusei; [14]
  MIC: 2.1 to 4 mg/L (≈ 3.67 to 6.98 µM)
C. krusei; [15]
  MIC: 1.01 to 2 mg/L (≈ 1.76 to 3.49 µM)
Diplodia maydis (Dm); [16]
  IC90: 2 mg/L (≈ 3.49 µM)
Diplodia maydis (Dm); [17]
  IC90: 2 mg/L (≈ 3.49 µM)
C. albicans; [18]
  MIC: 2.1 to 4 mg/L (≈ 3.67 to 6.98 µM)
C. albicans; [19]
  MIC: 1.01 to 2 mg/L (≈ 1.76 to 3.49 µM)
[3]; [20]
  Concentration at 90% Inhibition Fm: A (compound concentration of 0.4 ppm at 90% inhibition of fungal pathogens)
[3]
  IC90: 0.4 mg/L (≈ 0.698 µM)
Septoria tritici (St); [21]
  IC90: > 50 mg/L
Septoria tritici (St); [22]
  IC90: > 50 mg/L
